Assay results published in patent US20250041245A1, “ENDOXIFEN FOR TREATMENT OF CANCERS” (Atossa Therapeutics, Inc., priority 2021, published 2025).
pIC50: −log10 of the molar value. Values joined by “and” are separate entries in the source; they are usually repeats but may differ in a detail not shown here. Equal entries are not always repeated. “Also recorded” adds a separate entry of the source.

Legend:
Format in all cases: cell-based, human
[1] = test system: patient-derived tumor organoids (PDTOs), neuroblastoma; test: Endoxifen screen in PDTOs: neuroblastoma; design: key to Personalization Category: Personalization categories range from High, Good, Moderate, Low, to None; Personalization categories range from High, Good, Moderate, Low, to None; Personalization categories range from High, Good, Moderate, Low, to None; Personalization categories range from High, Good, Moderate, Low, to None; Personalization categories range from High, Good, Moderate, Low, to None; key to Sensitivity Category: Sensitivity categories range from High, Good, Moderate, Low, to None; Sensitivity categories range from High, Good, Moderate, Low, to None; Sensitivity categories range from High, Good, Moderate, Low, to None; Sensitivity categories range from High, Good, Moderate, Low, to None; Sensitivity categories range from High, Good, Moderate, Low, to None; AUC: unit not given beside the values; settings: each line one patient sample; for pIC50: four-parameter logistic fit
Method: (§1) This example describes screening endoxifen in patient-derived tumor organoids. Endoxifen was tested as a single agent on tumor organoids derived from patients diagnosed with various cancer types using a personalized cancer treatment screening assay (PARIS© Test, SEngine Precision Medicine). The screen utilized patient-derived tumor organoids (PDTOs) along with high-throughput drug screening and machine learning-guided data analysis to quantify the efficacy of endoxifen against samples derived from individual patients diagnosed with various cancer types. PDTOs are self-organizing, three-dimensional organoid structures that recapitulate structural, functional, and genomic aspects of in vivo organs. The PDTOs were grown in culture from patient tumor biopsy samples.
(§2) Fresh patient biopsy samples received following surgery were cleaned and purified. Immune cells (e.g., lymphocytes, blood cells), cancer-associated fibroblasts, and other non-tumor cells were removed to establish pure PDTOs for endoxifen testing. The tumor organoids were grown and expanded by supplying organ- and patient-specific growth factors and nutrients. The PDTOs were treated with increasing concentrations of endoxifen ranging from about 30 nM to about 10 μM, and the drug response was measured using a luminescence readout. A lower luminescence was indicative of a stronger drug response.
(§3) The results were analyzed using a “SEngine Precision Medicine” (SPM) scoring system to assess the sensitivity and personalization of each tumor organoid to endoxifen. The SPM score correlates with clinical outcomes, such that a higher SPM score for a specific PDTO-drug combination predicts a more favorable clinical outcome following treatment of the corresponding patient with the tested drug.
(§4) This example describes testing endoxifen efficacy against 17 distinct cancer types in patient-derived tumor organoids (PDTOs). Screening of PDTOs was performed as described in EXAMPLE 1. For each PDTO sample, the drug response was measured using a luminescent readout over a range of endoxifen concentrations. The drug response was evaluated based on the area under the fitted dose response curve (AUC) and the SPM scoring system. AUC values were normalized for each PDTO. Briefly, data points at each drug concentration were first normalized to a negative control, then a dose response drug curve was approximated using a four-parameter logistic model fitted to the normalized data points. The area under the curve was calculated from the normalized curve. Normalization allowed for comparison of AUC values between patient samples. The SPM scores were based on machine learning models that incorporate values for how well the drug kill patient cells (sensitivity metric), the relative drug responses of a patient to all other patients in a sample database (personalization metric), and knowledge of clinical outcomes for patients that had been evaluated with the personalized cancer screening assay (PARIS® Test, SEngine Precision Medicine).
The SPM scoring system evaluated whether a PDTO was unresponsive or responsive to endoxifen and the degree of drug response for PDTOs that were responsive to endoxifen. The SPM scoring system generated metrics an SPM score, predictive of clinical outcome, overall drug response (response category), drug sensitivity (sensitivity category), and drug personalization (personalization category). SPM scores ranged from 1-15, corresponding to the following drug response categories: no response (SPM 1-8), low response (SPM 9), moderate response (SPM 10-11), good response (SPM 12-13), and exceptional response (SPM 14-15). […] Moderate to good drug responses (SPM 10-13) may indicate that a drug has clinical relevance, possibly in combination with other drugs. The sensitivity category was determined from the sensitivity metric and is a measure of overall cell death of a patient's cells in response to endoxifen at six concentrations. […]

[2] = test system: patient-derived tumor organoids (PDTOs), esophageal adenocarcinoma; test: Endoxifen screen in PDTOs: esophageal adenocarcinoma; design: key to Personalization Category: Personalization categories range from High, Good, Moderate, Low, to None; Personalization categories range from High, Good, Moderate, Low, to None; Personalization categories range from High, Good, Moderate, Low, to None; Personalization categories range from High, Good, Moderate, Low, to None; Personalization categories range from High, Good, Moderate, Low, to None; AUC: unit not given beside the values
Method: as §1, §2
The results were analyzed using a “SEngine Precision Medicine” (SPM) scoring system to assess the sensitivity and personalization of each tumor organoid to endoxifen. […]
as §4, with “Screening of PDTOs was performed as described in EXAMPLE 1.” left out, “AUC values were normalized for each PDTO. Briefly, data points at each drug concentration were first normalized to a negative control, then a dose response drug curve was approximated using a four-parameter logistic model fitted to the normalized data points.” left out, “Normalization allowed for comparison of AUC values between patient samples.” left out
(§5) The SPM scoring system evaluated whether a PDTO was unresponsive or responsive to endoxifen and the degree of drug response for PDTOs that were responsive to endoxifen. […] The sensitivity category was determined from the sensitivity metric and is a measure of overall cell death of a patient's cells in response to endoxifen at six concentrations. […]

[3] = test system: patient-derived tumor organoids (PDTOs), rectal cancer; test: Endoxifen screen in PDTOs: rectal cancer; design: key to Personalization Category: Personalization categories range from High, Good, Moderate, Low, to None; Personalization categories range from High, Good, Moderate, Low, to None; Personalization categories range from High, Good, Moderate, Low, to None; Personalization categories range from High, Good, Moderate, Low, to None; Personalization categories range from High, Good, Moderate, Low, to None; key to Sensitivity Category: Sensitivity categories range from High, Good, Moderate, Low, to None; Sensitivity categories range from High, Good, Moderate, Low, to None; Sensitivity categories range from High, Good, Moderate, Low, to None; Sensitivity categories range from High, Good, Moderate, Low, to None; Sensitivity categories range from High, Good, Moderate, Low, to None; AUC: unit not given beside the values
Method: as §1, §2, §3, §4, §5

**Q.** With `CC/C(=C(\c1ccc(O)cc1)c1ccc(OCCNC)cc1)c1ccccc1` [Endoxifen, 4-hydroxy-N-desmethyltamoxifen] as the compound, how does the pIC50 ([1]; Homo sapiens) read?
**A.** 5.24

**Q.** And the “Personalization Category” value [1]?
**A.** Low and Moderate and None

**Q.** And the “Response Category” value [1]?
**A.** Low (low response (SPM 9)); also recorded: Moderate (moderate response (SPM 10-11)); also recorded: None (no response (SPM 1-8))

**Q.** What about the “Sensitivity Category” value [1] of the same compound?
**A.** Low and None

**Q.** What about the pIC50 [1] of the same compound?
**A.** 5.23 and 5.14

**Q.** What about the AUC ([1]; normalized area under fitted dose response curve) of the same compound?
**A.** 0.8848 and 0.8184 and 0.9511

**Q.** And the “SPM Score” value ([1]; score range 1-15)?
**A.** 9 and 10 and 1

**Q.** And the pIC50 ([2]; Homo sapiens, Patient 14, four-parameter logistic fit)?
**A.** 5.40

**Q.** And the “Personalization Category” value ([2]; Patient 14)?
**A.** Good

**Q.** What about the AUC ([2]; Patient 14, normalized area under fitted dose response curve) of the same compound?
**A.** 0.7771

**Q.** And the “SPM Score” value ([2]; Patient 14, score range 1-15)?
**A.** 11

**Q.** What about the pIC50 ([3]; Homo sapiens, Patient 19, four-parameter logistic fit) of the same compound?
**A.** 5.41

**Q.** And the “Personalization Category” value ([3]; Patient 19)?
**A.** Low

**Q.** What about the “Sensitivity Category” value ([3]; Patient 19) of the same compound?
**A.** Low

**Q.** And the AUC ([3]; Patient 19, normalized area under fitted dose response curve)?
**A.** 0.8614

**Q.** And the “SPM Score” value ([3]; Patient 19, score range 1-15)?
**A.** 9
